{"source": "ChEMBL document CHEMBL4184221", "about": "“Identification and optimization of soluble epoxide hydrolase inhibitors with dual potency towards fatty acid amide hydrolase” (Bioorg Med Chem Lett, 2018)", "key": {"[1]": {"biological_target": "T1, Bifunctional epoxide hydrolase 2 (Homo sapiens, UniProt P34913)", "T1 sequence (P34913 whole entry)": "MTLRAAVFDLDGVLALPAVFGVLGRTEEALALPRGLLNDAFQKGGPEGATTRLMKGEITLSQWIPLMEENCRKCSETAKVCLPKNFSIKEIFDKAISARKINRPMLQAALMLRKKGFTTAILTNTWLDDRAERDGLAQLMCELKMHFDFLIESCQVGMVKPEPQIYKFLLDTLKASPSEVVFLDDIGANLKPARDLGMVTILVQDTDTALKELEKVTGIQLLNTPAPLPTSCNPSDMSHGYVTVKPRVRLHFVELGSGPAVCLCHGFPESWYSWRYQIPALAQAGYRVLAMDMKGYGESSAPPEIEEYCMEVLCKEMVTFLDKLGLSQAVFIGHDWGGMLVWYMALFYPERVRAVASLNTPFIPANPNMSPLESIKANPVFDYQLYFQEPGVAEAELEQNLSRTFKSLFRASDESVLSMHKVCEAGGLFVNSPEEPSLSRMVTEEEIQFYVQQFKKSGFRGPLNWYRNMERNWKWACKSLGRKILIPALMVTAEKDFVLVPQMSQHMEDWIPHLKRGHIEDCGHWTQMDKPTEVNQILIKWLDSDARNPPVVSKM", "assay": "Inhibition of human recombinant soluble epoxide hydrolase expressed in baculovirus-infected High Five cells S9 fraction using CMNPC substrate by fluorescence based assay", "assay_type": "cell-based"}, "[2]": {"biological_target": "T2, Bifunctional epoxide hydrolase 2 (Homo sapiens) (UniProt P34913)", "T2 sequence (whole entry)": "T1 sequence (P34913 whole entry)"}, "Canis lupus familiaris": {"species_on_record": "Canis lupus familiaris", "assay": "Inhibition of FAAH in dog brain microsomes using OMP substrate by fluorescence based assay", "details": "concentration not given here"}, "[3]": {"assay": "(§1) Inhibition of FAAH in horse brain microsomes using OMP substrate by fluorescence based assay", "design": "species or system Equus caballus"}, "Equus caballus": {"species_on_record": "Equus caballus", "assay": "as §1", "details": "concentration not given here"}, "Felis catus": {"species_on_record": "Felis catus", "assay": "Inhibition of FAAH in cat brain microsomes using OMP substrate by fluorescence based assay", "details": "concentration not given here"}}, "note": "The source made the active and inactive calls. No cut-off for these calls is given here."}
{"compound": "O=C(Nc1ccc(Oc2ccc(C(=O)O)cc2)cc1)Nc1ccc(OC(F)(F)F)cc1", "values": [{"measurement": "IC50", "setting": "[1]", "result": 7, "unit": "nM"}]}
{"compound": "O=C(Nc1ccc(Cl)cc1)N[C@H]1CC[C@H](Oc2ccc(C(=O)O)cc2)CC1", "values": [{"measurement": "IC50", "setting": "[1]", "result": 7, "unit": "nM"}]}
{"compound": "O=C(NC1CCCCC1)N[C@H]1CC[C@H](Oc2ccc(C(=O)O)cc2)CC1", "values": [{"measurement": "IC50", "setting": "[1]", "result": 6, "unit": "nM"}]}
{"compound": "O=C(Nc1ccc(OC(F)(F)F)cc1)N[C@H]1CC[C@H](Oc2ccc(C(=O)O)cc2)CC1", "values": [{"measurement": "TDI", "setting": "[2]", "result": "inactive"}]}
{"compound": "NC(=O)c1cccc(-c2cccc(OC(=O)NC3CCCCC3)c2)c1", "note": "[URB-597]", "values": [{"measurement": "inhibition", "setting": "Canis lupus familiaris", "result": "> 80", "unit": "%"}, {"measurement": "IC50", "setting": "[3]", "result": 7, "unit": "nM"}, {"measurement": "inhibition", "setting": "Equus caballus", "result": "> 80", "unit": "%"}, {"measurement": "TDI", "setting": "[2]", "result": "Active"}, {"measurement": "IC50", "setting": "[1]", "result": 1100, "unit": "nM"}, {"measurement": "inhibition", "setting": "Felis catus", "result": "> 80", "unit": "%"}]}
